Experimental findings from US12577325B2, “Bispecific antibody-camptothecin drug conjugate and pharmaceutical use thereof” (SYSTIMMUNE, INC., priority 2021, dated 2026) are described below.

Assay [1] relates to human poorly differentiated lung cancer squamous cell carcinoma cell line Oka-c-1. Briefly: In vitro efficacy (Alamar Blue or MTS, 5 days) in Oka-c-1. Type of assay: cell-based. Particulars: 120 h, Oka-c-1, 5 days. How it is done:
(§1) The in vitro efficacy of ADC-coupled drugs was evaluated using an experimental model of two human tumor cell lines (human poorly differentiated lung cancer squamous cell carcinoma cell line Oka-c-1, human lung squamous cell carcinoma cells SK-MES-1).
(§2) Inoculate a certain number of tumor cells in a 96-well plate, add the gradient-diluted test antibody and the corresponding ADC drug to the cells, treat for 5 days, measure the cell viability using Alamar Blue or MTS, and evaluate the inhibitory effect of the test antibody, the ADC and the small molecule drug d3 on the tumor cell lines by calculating the IC50. The starting concentration of the antibody drug was 500 nM, and the dilution was 7-fold, totaling 7 concentration points, and the treatment was carried out for 5 days.

For assay [2], the system named is human lung squamous cell carcinoma cells SK-MES-1. Briefly: In vitro efficacy (Alamar Blue or MTS, 5 days) in SK-MES-1. The note with it: 120 h, SK-MES-1, 5 days. Type of assay: cell-based. The procedure: as §1, §2

Take `CC[C@@]1(O)C(=O)OCc2c1cc1n(c2=O)Cc2c-1nc1cc(F)c(C)c3c1c2[C@@H](NC(=O)[C@H](C)O)CC3` [d3]: the half-inhibitory concentration (IC50) was 0.846 nM in assay [1] and 2.04 nM in assay [2].
